Measured values reported in PubChem BioAssay (NCI).
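These data come from cells grown in 96-well plates and exposed to compound for 48 hours at five concentrations. TGI marks complete inhibition of growth.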

Assays:
Test in all cases: NCI anticancer screen, dose series, 48 h
[1] = system: OVCAR-3 ovarian
[2] = system: MALME-3M melanoma
[3] = system: HT29 colon
[4] = system: CCRF-CEM leukemia
[5] = system: OVCAR-5 ovarian
[6] = system: DU-145 prostate
[7] = system: HCT-116 colon
[8] = system: A498 renal
[9] = system: MDA-N
[10] = system: PC-3 prostate
[11] = system: COLO 205 colon
[12] = system: HOP-62 NSCLC
[13] = system: UO-31 renal
[14] = system: HS 578T breast
[15] = system: MOLT-4 leukemia
[16] = system: HCT-15 colon
[17] = system: SNB-19 CNS
[18] = system: KM12 colon
[19] = system: SNB-75 CNS
[20] = system: NCI-H23 lung
[21] = system: A549 NSCLC
[22] = system: U251 CNS
[23] = system: SF-539 CNS
[24] = system: NCI-H460 lung
[25] = system: CAKI-1 renal
[26] = system: OVCAR-8 ovarian
[27] = system: NCI-H226 lung
[28] = system: K-562 leukemia
[29] = system: UACC-62 melanoma
[30] = system: SK-OV-3 ovarian
[31] = system: HL-60(TB) leukemia
[32] = system: SK-MEL-28 melanoma
[33] = system: ACHN renal
[34] = system: SF-268 CNS
[35] = system: T-47D breast
[36] = system: HCC-2998 colon
[37] = system: SK-MEL-5 melanoma
[38] = system: 786-0 renal
[39] = system: M14 melanoma
[40] = system: RPMI-8226 leukemia
[41] = system: MCF7 breast
[42] = system: IGROV1 ovarian
[43] = system: RXF 393 renal
[44] = system: LOX IMVI melanoma
[45] = system: MDA-MB-231 breast
[46] = system: SN12C renal
[47] = system: OVCAR-4 ovarian
[48] = system: TK-10 renal
[49] = system: NCI/ADR-RES ovarian
[50] = system: SW-620 colon
[51] = system: SK-MEL-2 melanoma
[52] = system: UACC-257 melanoma
[53] = system: EKVX NSCLC
[54] = system: NCI-H522 lung
[55] = system: MDA-MB-435
[56] = system: SR leukemia
[57] = system: HOP-92 NSCLC
[58] = system: BT-549 breast
[59] = system: SF-295 CNS

## CC(C)C[S+]1C2=C([O-])CC(C)(C)CC2=Nc2ccccc21 (centres undefined)
[1]
  TGI: > 100 µM
[2]
  TGI: > 100 µM
[3]
  TGI: > 100 µM
[4]
  TGI: > 100 µM
[5]
  TGI: > 100 µM
[6]
  TGI: > 100 µM
[7]
  TGI: > 100 µM
[8]
  TGI: > 100 µM
[9]
  TGI: > 100 µM
[10]
  TGI: > 100 µM
[11]
  TGI: > 100 µM
[12]
  TGI: > 100 µM
[13]
  TGI: > 100 µM
[14]
  TGI: > 100 µM
[15]
  TGI: > 100 µM
[16]
  TGI: > 100 µM
[17]
  TGI: > 100 µM
[18]
  TGI: > 100 µM
[19]
  TGI: > 100 µM
[20]
  TGI: > 100 µM
[21]
  TGI: > 100 µM
[22]
  TGI: > 100 µM
[23]
  TGI: > 100 µM
[24]
  TGI: > 100 µM
[25]
  TGI: > 100 µM
[26]
  TGI: > 100 µM
[27]
  TGI: > 100 µM
[28]
  TGI: > 100 µM
[29]
  TGI: > 100 µM
[30]
  TGI: > 100 µM
[31]
  TGI: > 100 µM
[32]
  TGI: > 100 µM
[33]
  TGI: > 100 µM
[34]
  TGI: > 100 µM
[35]
  TGI: > 100 µM
[36]
  TGI: > 100 µM
[37]
  TGI: > 100 µM
[38]
  TGI: > 100 µM
[39]
  TGI: > 100 µM
[40]
  TGI: > 100 µM
[41]
  TGI: > 100 µM
[42]
  TGI: > 100 µM
[43]
  TGI: > 100 µM
[44]
  TGI: > 100 µM
[45]
  TGI: > 100 µM
[46]
  TGI: > 100 µM
[47]
  TGI: > 100 µM
[48]
  TGI: > 100 µM
[49]
  TGI: > 100 µM
[50]
  TGI: > 100 µM
[51]
  TGI: > 100 µM
[52]
  TGI: > 100 µM
[53]
  TGI: > 100 µM
[54]
  TGI: > 100 µM
[55]
  TGI: > 100 µM
[56]
  TGI: 75.8 µM
[57]
  TGI: > 100 µM
[58]
  TGI: > 100 µM
[59]
  TGI: > 100 µM

## COC(=O)[C@H](CNC(=O)/C=C/c1ccc(OC(C)=O)c(OC(C)=O)c1)NC(=O)/C=C/c1ccc(OC(C)=O)c(OC(C)=O)c1
[1]
  TGI: > 100 µM
[2]
  TGI: > 100 µM
[3]
  TGI: > 100 µM
[4]
  TGI: > 100 µM
[5]
  TGI: > 100 µM
[6]
  TGI: > 100 µM
[7]
  TGI: > 100 µM
[8]
  TGI: > 100 µM
[9]
  TGI: > 100 µM
[10]
  TGI: > 100 µM
[11]
  TGI: > 100 µM
[12]
  TGI: > 100 µM
[14]
  TGI: > 100 µM
[15]
  TGI: > 100 µM
[16]
  TGI: > 100 µM
[17]
  TGI: > 100 µM
[18]
  TGI: > 100 µM
[19]
  TGI: > 100 µM
[20]
  TGI: > 100 µM
[21]
  TGI: > 100 µM
[22]
  TGI: > 100 µM
[23]
  TGI: > 100 µM
[24]
  TGI: > 100 µM
[25]
  TGI: > 100 µM
[26]
  TGI: > 100 µM
[27]
  TGI: > 100 µM
[28]
  TGI: > 100 µM
[29]
  TGI: > 100 µM
[30]
  TGI: > 100 µM
[31]
  TGI: > 100 µM
[32]
  TGI: > 100 µM
[33]
  TGI: > 100 µM
[35]
  TGI: > 100 µM
[36]
  TGI: > 100 µM
[37]
  TGI: > 100 µM
[38]
  TGI: > 100 µM
[39]
  TGI: > 100 µM
[40]
  TGI: > 100 µM
[41]
  TGI: > 100 µM
[42]
  TGI: > 100 µM
[43]
  TGI: > 100 µM
[44]
  TGI: > 100 µM
[45]
  TGI: > 100 µM
[46]
  TGI: > 100 µM
[47]
  TGI: > 100 µM
[49]
  TGI: > 100 µM
[50]
  TGI: > 100 µM
[51]
  TGI: > 100 µM
[52]
  TGI: > 100 µM
[53]
  TGI: > 100 µM
[55]
  TGI: > 100 µM
[56]
  TGI: > 100 µM
[57]
  TGI: > 100 µM
[58]
  TGI: > 100 µM

## C[C@@H]1C[C@H]2OC(=O)[C@@]3(C)CCC[C@@](C)([C@@H]23)[C@@]1(O)CCc1ccoc1
[1]
  TGI: > 100 µM
[3]
  TGI: > 100 µM
[4]
  TGI: > 100 µM
[5]
  TGI: > 100 µM
[6]
  TGI: > 100 µM
[7]
  TGI: > 100 µM
[8]
  TGI: > 100 µM
[9]
  TGI: > 100 µM
[10]
  TGI: > 100 µM
[11]
  TGI: > 100 µM
[12]
  TGI: > 100 µM
[13]
  TGI: > 100 µM
[14]
  TGI: > 100 µM
[15]
  TGI: > 94.4 µM
[16]
  TGI: > 100 µM
[17]
  TGI: > 100 µM
[18]
  TGI: > 100 µM
[19]
  TGI: > 100 µM
[20]
  TGI: > 100 µM
[21]
  TGI: > 100 µM
[22]
  TGI: > 100 µM
[23]
  TGI: > 100 µM
[24]
  TGI: > 100 µM
[25]
  TGI: > 100 µM
[26]
  TGI: > 100 µM
[27]
  TGI: > 100 µM
[28]
  TGI: > 100 µM
[29]
  TGI: > 100 µM
[30]
  TGI: > 100 µM
[31]
  TGI: > 88.6 µM
[32]
  TGI: > 100 µM
[33]
  TGI: > 100 µM
[34]
  TGI: > 100 µM
[35]
  TGI: > 100 µM
[36]
  TGI: > 100 µM
[37]
  TGI: > 100 µM
[38]
  TGI: > 100 µM
[39]
  TGI: > 100 µM
[40]
  TGI: > 100 µM
[41]
  TGI: > 100 µM
[42]
  TGI: > 100 µM
[43]
  TGI: > 100 µM
[44]
  TGI: > 100 µM
[45]
  TGI: > 100 µM
[46]
  TGI: > 100 µM
[47]
  TGI: > 100 µM
[48]
  TGI: > 100 µM
[49]
  TGI: > 100 µM
[50]
  TGI: > 100 µM
[51]
  TGI: > 100 µM
[52]
  TGI: > 100 µM
[53]
  TGI: > 100 µM
[54]
  TGI: > 100 µM
[55]
  TGI: > 100 µM
[56]
  TGI: > 88.9 µM
[57]
  TGI: > 100 µM
[58]
  TGI: > 100 µM
[59]
  TGI: > 100 µM

## CCOC(=O)C1(CC(=O)O)CCCC1=O (centres undefined)
[1]
  TGI: > 100 µM
[2]
  TGI: > 100 µM
[3]
  TGI: > 100 µM
[4]
  TGI: > 100 µM
[5]
  TGI: > 100 µM
[6]
  TGI: > 100 µM
[7]
  TGI: > 100 µM
[8]
  TGI: > 100 µM
[9]
  TGI: > 100 µM
[10]
  TGI: > 100 µM
[11]
  TGI: > 100 µM
[12]
  TGI: > 100 µM
[13]
  TGI: > 100 µM
[14]
  TGI: > 100 µM
[15]
  TGI: > 100 µM
[16]
  TGI: > 100 µM
[17]
  TGI: > 100 µM
[18]
  TGI: > 100 µM
[19]
  TGI: > 100 µM
[20]
  TGI: > 100 µM
[21]
  TGI: > 100 µM
[22]
  TGI: > 100 µM
[23]
  TGI: > 100 µM
[24]
  TGI: > 100 µM
[25]
  TGI: > 100 µM
[26]
  TGI: > 100 µM
[27]
  TGI: > 100 µM
[28]
  TGI: > 100 µM
[29]
  TGI: > 100 µM
[30]
  TGI: > 100 µM
[31]
  TGI: > 100 µM
[32]
  TGI: > 100 µM
[33]
  TGI: > 100 µM
[34]
  TGI: > 100 µM
[35]
  TGI: > 100 µM
[37]
  TGI: > 100 µM
[38]
  TGI: > 100 µM
[39]
  TGI: > 100 µM
[40]
  TGI: > 100 µM
[41]
  TGI: > 100 µM
[42]
  TGI: > 100 µM
[43]
  TGI: > 100 µM
[44]
  TGI: > 100 µM
[45]
  TGI: > 100 µM
[46]
  TGI: > 100 µM
[47]
  TGI: > 100 µM
[48]
  TGI: > 100 µM
[49]
  TGI: > 100 µM
[50]
  TGI: > 100 µM
[51]
  TGI: > 100 µM
[52]
  TGI: > 100 µM
[53]
  TGI: > 100 µM
[54]
  TGI: > 100 µM
[55]
  TGI: > 100 µM
[56]
  TGI: > 100 µM
[57]
  TGI: > 100 µM
[58]
  TGI: > 100 µM
[59]
  TGI: > 100 µM
